Data from ChEMBL document CHEMBL5380779, “Small Molecules Targeting the RNA-Binding Protein HuR Inhibit Tumor Growth in Xenografts” (J Med Chem, 2023).
Active and inactive are the calls of the source. The calls are words filed in the database; no cut-off is given here.

How the values were obtained:
[1] = Inhibition of full-length HuR-ARE fluorescein-labeled Msi1 mRNA binding (unknown origin) incubated for 2 hrs by fluorescence polarization assay; design: species or system Homo sapiens
MDA-MB-231 [2] = experiment: Cytotoxicity against human MDA-MB-231 cells assessed as inhibition of cell growth by MTT assay; assay type: functional, cell-based
MDA-MB-231 [3] = experiment: Cytotoxicity against HuR knockout 2 human MDA-MB-231 cells assessed as inhibition of cell growth by MTT assay (reference value: 1.491 uM); assay type: functional, cell-based
MDA-MB-231 [4] = experiment: Inhibition of HuR-16-nt biotinylated ARE Msi1 mRNA binding in human MDA-MB-231 cells at 10 uM by Western blotting analysis based pull-down assay; assay type: cell-based
MDA-MB-231 [5] = experiment: Cytotoxicity against HuR knockout 1 human MDA-MB-231 cells assessed as inhibition of cell growth by MTT assay (reference value: 1.491 uM); assay type: functional, cell-based
MDA-MB-231 [6] = experiment: Downregulation of XIAP protein expression in human MDA-MB-231 cells incubated for 48 hrs by Western blotting analysis; assay type: functional, cell-based; conditions: dose 5-10 µM
MDA-MB-231 [7] = experiment: Inhibition of HuR-XIAP mRNA binding in human MDA-MB-231 cells at 5 uM incubated for 6 hrs by RNP immunoprecipitation assay; assay type: cell-based
MDA-MB-231 [8] = experiment: Inhibition of HuR-Msi2 mRNA binding in human MDA-MB-231 cells at 5 uM incubated for 6 hrs by RNP immunoprecipitation assay; assay type: cell-based
MDA-MB-231 [9] = experiment: Inhibition of HuR-16-nt biotinylated ARE Msi1 mRNA binding in human MDA-MB-231 cells at 20 uM by Western blotting analysis based pull-down assay; assay type: cell-based
MDA-MB-231 [10] = experiment: Inhibition of HuR-Bcl-2 mRNA binding in human MDA-MB-231 cells at 5 uM incubated for 6 hrs by RNP immunoprecipitation assay; assay type: cell-based
MDA-MB-231 [11] = experiment: Downregulation of Msi2 protein expression in human MDA-MB-231 cells incubated for 48 hrs by Western blotting analysis; assay type: functional, cell-based; conditions: dose 5-10 µM
MDA-MB-231 [12] = experiment: Downregulation of HuR protein expression in human MDA-MB-231 cells at 5 to 10 uM incubated for 48 hrs by Western blotting analysis; assay type: functional, cell-based; conditions: dose 5-10 µM
MDA-MB-231 [13] = experiment: Downregulation of Bcl-2 protein expression in human MDA-MB-231 cells incubated for 48 hrs by Western blotting analysis; assay type: functional, cell-based; conditions: dose 5-10 µM
MDA-MB-231 [14] = experiment: Inhibition of cell invasion of human MDA-MB-231 cells at 5 uM incubated for 24 hrs by crystal violet staining based analysis; assay type: functional
[15] = target: ELAV-like protein 1 (Homo sapiens) (UniProt Q15717); experiment: Thermal stabilization of HuR in human MDA-MB-231 cells at 10 uM at 42 to 54 degreeC incubated for 1 hr by western blot based cellular thermal shift assay; assay type: cell-based
MDA-MB-231 [16] = experiment: Inhibition of HuR-XIAP mRNA binding in human MDA-MB-231 cells at 10 uM incubated for 6 hrs by RNP immunoprecipitation assay; assay type: cell-based
MDA-MB-231 [17] = experiment: Inhibition of HuR-TGFB2 mRNA binding in human MDA-MB-231 cells assessed as half life of TGFB2 in presence of actinomycin D (reference value: 7.202 hrs); assay type: cell-based
MDA-MB-231 [18] = experiment: Inhibition of HuR-Bcl-2 mRNA binding in human MDA-MB-231 cells at 10 uM incubated for 6 hrs by RNP immunoprecipitation assay; assay type: cell-based
[19] = target: ELAV-like protein 1 (Homo sapiens) (UniProt Q15717); experiment: Thermal stabilization of HuR in human MDA-MB-231 cells at 20 uM at 42 to 54 degreeC incubated for 1 hr by western blot based cellular thermal shift assay; assay type: cell-based
MDA-MB-231 [20] = experiment: Inhibition of HuR-THBS1 mRNA binding in human MDA-MB-231 cells assessed as half life of THBS1 in presence of actinomycin D (reference value: 10.46 hrs); assay type: cell-based
MDA-MB-231 [21] = experiment: Inhibition of HuR-Msi2 mRNA binding in human MDA-MB-231 cells at 10 uM incubated for 6 hrs by RNP immunoprecipitation assay; assay type: cell-based
MDA-MB-231 [22] = experiment: Inhibition of cell invasion of human MDA-MB-231 cells at 10 uM incubated for 24 hrs by crystal violet staining based analysis; assay type: functional
MDA-MB-231 [23] = experiment: Antitumor activity against human MDA-MB-231 cells xenografted iv dosed athymic NCr-nu/nu mouse assessed as reduction in tumor size administered 3 times a week for 3 weeks; assay type: functional, organism-based
[24] = Inhibition of HuR-ARE fluorescein-labeled Msi1 mRNA binding (unknown origin) by fluorescence polarization assay; design: species or system Homo sapiens

Chain of ELAV-like protein 1 (Homo sapiens) (Q15717 whole entry): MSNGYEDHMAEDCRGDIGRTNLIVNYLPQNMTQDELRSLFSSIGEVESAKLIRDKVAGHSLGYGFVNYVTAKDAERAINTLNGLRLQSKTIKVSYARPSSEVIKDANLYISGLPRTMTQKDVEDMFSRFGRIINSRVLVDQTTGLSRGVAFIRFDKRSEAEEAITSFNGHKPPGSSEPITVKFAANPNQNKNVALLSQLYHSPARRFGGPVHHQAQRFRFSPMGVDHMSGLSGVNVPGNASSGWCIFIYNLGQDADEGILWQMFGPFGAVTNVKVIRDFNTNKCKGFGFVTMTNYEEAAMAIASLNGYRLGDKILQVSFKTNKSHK

Compound | Ki [1] | IC50 (MDA-MB-231 [2]) | also measured
COC(=O)c1cc2cc(NC(=O)c3ccc(C(C)(C)C)cc3)ccc2s1 | > 20 µM | 5.28 µM | 
CCOC(=O)CCc1cc2cc(NC(=O)c3ccc(C(C)(C)C)cc3)ccc2s1 | 11.8 µM | 6.52 µM | 
CCOC(=O)/C=C/c1cc2cc(NC(=O)c3ccc(C(C)(C)C)cc3)ccc2[nH]1 | > 20 µM | 1.13 µM | 
CC(C)(C)c1ccc(S(=O)(=O)Nc2ccc3sc(C(=O)NO)cc3c2)cc1 | 3.24 µM | 12.9 µM | 
CC(C)(C)c1ccc(C(=O)Nc2ccc3sc(CCC(=O)NO)cc3c2)cc1 | 0.83 µM | 3.49 µM | 
O=C(Nc1ccc2sc(C(=O)NO)cc2c1)c1ccccn1 |  | 4.43 µM | 
CCOC(=O)c1cc2cc(NC(=O)c3ccc(N(C)C)cc3)ccc2[nH]1 |  | > 100 µM | 
CCOC(=O)c1cc2cc(NC(=O)c3ccc(C(C)(C)C)cc3)ccc2[nH]1 | > 20 µM | 25.1 µM | 
CC(C)(C)c1ccc(S(=O)(=O)Nc2ccc3[nH]c(C(=O)NO)cc3c2)cc1 | 1.75 µM | 32 µM | 
CC(C)(C)c1ccc(C(=O)Nc2ccc3sc(C(=O)NO)cc3c2)cc1 | 0.44 µM | 3.71 µM | 
CC(C)(C)c1ccc(C(=O)O)cc1 |  |  | IC50 [1]: > 200 µM
CC(C)(C)c1ccc(C(=O)Nc2ccc3sc(C(=O)O)cc3c2)cc1 | 5.08 µM | 90.5 µM | 
CN(C)c1ccc(C(=O)Nc2ccc3sc(C(=O)NO)cc3c2)cc1 |  | 1.31 µM | IC50 (MDA-MB-231 [3]): 3.01 µM; inhibition (MDA-MB-231 [4]): Active; IC50 (MDA-MB-231 [5]): 3.66 µM; Activity (MDA-MB-231 [6]): Dose-Dependent Effect; inhibition (MDA-MB-231 [7]): Active; inhibition (MDA-MB-231 [8]): Active; inhibition (MDA-MB-231 [9]): inactive; inhibition (MDA-MB-231 [10]): Active; Activity (MDA-MB-231 [11]): Dose-Dependent Effect; Activity (MDA-MB-231 [12]): inactive; Activity (MDA-MB-231 [13]): Dose-Dependent Effect; inhibition (MDA-MB-231 [14]): Active; Activity [15]: Active
O=C(Nc1ccc2sc(C(=O)O)cc2c1)c1ccccn1 |  | > 100 µM | 
O=C(Nc1ccc2[nH]c(C(=O)O)cc2c1)c1ccccn1 |  | > 100 µM | 
O=C(O)c1cc2cc([N+](=O)[O-])ccc2[nH]1 | 6.95 µM |  | IC50 [1]: 29.7 µM
CC(C)(C)c1ccc(C(=O)Nc2ccc3sc(/C=C/C(=O)O)cc3c2)cc1 | 0.97 µM | 72.1 µM | 
CCOC(=O)/C=C/c1cc2cc(NC(=O)c3ccc(C(C)(C)C)cc3)ccc2s1 | 13.3 µM | 57.7 µM | 
COC(=O)c1cc2cc(NS(=O)(=O)c3ccc(C(C)(C)C)cc3)ccc2s1 | 15.4 µM | 27.4 µM | 
CC(C)(C)c1ccc(S(=O)(=O)Nc2ccc3[nH]c(C(=O)O)cc3c2)cc1 | 6.17 µM | > 100 µM | 

Compound | Ki [1] | IC50 (MDA-MB-231 [2]) | also measured
CN(C)c1ccc(C(=O)Nc2ccc3[nH]c(/C=C/C(=O)NO)cc3c2)cc1 | 0.69 µM | 8.91 µM | 
O=C(Nc1ccc2[nH]c(C(=O)NO)cc2c1)c1ccccn1 |  | 75.3 µM | inhibition (MDA-MB-231 [16]): inactive; T1/2 (MDA-MB-231 [17]): 7.09 h; inhibition (MDA-MB-231 [18]): inactive; Activity [19]: inactive; T1/2 (MDA-MB-231 [20]): 9.03 h; inhibition (MDA-MB-231 [21]): inactive; inhibition (MDA-MB-231 [22]): inactive
CC(=O)O[C@@]12CO[C@@H]1C[C@H](O)[C@@]1(C)C(=O)[C@H](O)C3=C(C)[C@@H](OC(=O)[C@H](O)[C@@H](NC(=O)OC(C)(C)C)c4ccccc4)C[C@@](O)([C@@H](OC(=O)c4ccccc4)[C@H]21)C3(C)C |  |  | Activity (MDA-MB-231 [23]): Active
CCOC(=O)c1cc2cc(NC(=O)c3ccccn3)ccc2[nH]1 |  | > 100 µM | 
CC(C)(C)c1ccc(C(=O)Nc2ccc3sc(CCC(=O)O)cc3c2)cc1 | 3.83 µM | 19.8 µM | 
CC(C)(C)c1ccc(C(=O)Nc2ccc3sc(/C=C/C(=O)NO)cc3c2)cc1 | 0.15 µM | 1.33 µM | IC50 [24]: 0.597 µM; Ki [24]: 0.139 µM
CC(C)(C)c1ccc(C(=O)Nc2ccc3[nH]c(/C=C/C(=O)O)cc3c2)cc1 | 3.35 µM | > 100 µM | 
CN(C)c1ccc(C(=O)Nc2ccc3sc(C(=O)O)cc3c2)cc1 |  | > 100 µM | 
CC(C)(C)c1ccc(S(=O)(=O)Nc2ccc3sc(C(=O)O)cc3c2)cc1 | 2.42 µM | > 100 µM | 
CN(C)c1ccc(C(=O)Nc2ccc3[nH]c(C(=O)O)cc3c2)cc1 |  | 99.8 µM | 
CCOC(=O)c1cc2cc(NS(=O)(=O)c3ccc(C(C)(C)C)cc3)ccc2[nH]1 | > 20 µM | 31.8 µM | 
COC(=O)c1cc2cc(NC(=O)c3ccc(N(C)C)cc3)ccc2s1 |  | > 100 µM | 
COC(=O)c1cc2cc(NC(=O)c3ccccn3)ccc2s1 |  | > 100 µM | 
CN(C)c1ccc(C(=O)Nc2ccc3[nH]c(/C=C/C(=O)O)cc3c2)cc1 | 7.76 µM | > 100 µM | 
CC(C)(C)c1ccc(S(=O)(=O)Nc2ccc3sc(/C=C/C(=O)NO)cc3c2)cc1 |  |  | IC50 [24]: 3.34 µM; Ki [24]: 0.783 µM
CC(C)(C)c1ccc(C(=O)Nc2ccc3[nH]c(/C=C/C(=O)NO)cc3c2)cc1 | 0.34 µM | 2.24 µM | 
CC(C)(C)c1ccc(C(=O)Nc2ccc3[nH]c(C(=O)O)cc3c2)cc1 |  | > 100 µM | 
CN(C)c1ccc(C(=O)Nc2ccc3[nH]c(C(=O)NO)cc3c2)cc1 |  | 11.3 µM | 
CCOC(=O)/C=C/c1cc2cc(NC(=O)c3ccc(N(C)C)cc3)ccc2[nH]1 | 4.39 µM | 76.3 µM | 
